In one test the target is HPPD SEQ ID NO:15 (Avena sativa, UniProt A0ACD5V6K6, DEL109-109/Q298A). The experiment in a line: biochemical. In kind it is binding. How it is done:
(§1) On rates (governed by an association rate constant, kon) for the formation of the enzyme: inhibitor complexes, EI and off rates (governed by a dissociation rate constant, koff) were determined by methods known in the art and essentially as described in Hawkes et al. (2001) Proc. Bright. Crop. Prot. Conf. Weeds, 2:563-568 and in PCT Patent App. Pub. No. WO 02/46387).
(§2) For example, on rates were measured by, at zero time, adding ˜60 pmoles HPPD to 50 mM BisTrisPropane buffer at pH7.0 and at 25° C. containing 25 mM Na ascorbate, 4 μg/ml bovine catalase (Sigma, St. Louis, Mo.) and an excess (˜300 pmoles) of ^14C inhibitor in a total assay volume of 425 μl and, at various time points (0-180 s), quenching the radiolabel binding reaction by addition and rapid mixing of 100 μl ‘cold’ 1 mM structure A. Protein samples quenched at different times were then exchanged into 50 mM BisTrisPropane buffer at pH 7.0 containing 0.1M KCl by rapid chromatography down a NAP5 G25 Sephadex column (GE Healthcare Ltd, Buckinghamshire UK) and the amount of ^14C bound to protein fractions quantified in Optiphase scintillant using a Tri-Carb 2900TR scintillation counter (Perkin Elmer, Wellesley, Mass.). The data were fit according to the scheme below in order to derive the value of the apparent second order rate constant, k2, governing the association rate of enzyme and radiolabelled inhibitor. A range of enzyme and inhibitor concentrations were used. […] Further example methods are described in PCT Patent App. Pub. No. WO 02/46387.
(§3) Off rates (k1 in the scheme below) were derived from exchange rate studies where either the test inhibitor, I, or its exchange partner, J were radiolabelled and the data fit according to the scheme below. As noted in Hawkes et al. (2001) Proc. Bright. Crop. Prot. Conf.
(§4) After 30 minutes the exchange reaction was initiated with addition of 100 μl 1 mM ‘cold’ structure A with thorough mixing, and, immediately, 150 μl were withdrawn and loaded onto a NAP5 column, the protein exchanged into 50 mM BisTrisPropane buffer at pH 7.0 containing 0.1M KCl by rapid (<2 min) chromatography down a NAP5 G25 Sephadex column (GE Healthcare Ltd, Buckinghamshire UK) and the amount of ^14C bound to protein measured by Optiphase scintillant using a Tri-Carb 2900TR scintillation counter (Perkin Elmer, Wellesley, Mass.). Further aliquots were removed and measured in the same way at various times over minutes or hours as required in order to determine the exchange kinetics.
(§5) After 30 minutes the reaction vessel was transferred to ice. After a further 10 minutes at ice temperature the exchange reaction was initiated by addition of 100 μl 1 mM Structure A, with thorough mixing, and 150 μl was withdrawn and loaded onto a NAP5 column in a cold room at ˜5-8° C. in order to quantify the amount of radiolabel remaining bound to the protein at various time from the start of exchange at ice temperature.
(§6) Off rates (k1) of HPPD inhibitors that are not available radiolabelled or that present other measurement problems (for example high levels of background non-specific protein-binding which can be measured as radiolabel binding that persists in the presence of high concentrations of ‘cold’ inhibitor) may be measured indirectly. […] Exemplary methods are also described in PCT Patent App. Pub. No. WO 02/46387.

In a further test the target is HPPD SEQ ID NO:19 (Avena sativa, UniProt A0ACD5V6K6, DEL109-109/I285A). The test is described as follows: biochemical. In kind it is binding. How it is done:
as §1, §2, §3, §4, §5, §6

A further test concerns the target HPPD SEQ ID NO:26 (Avena sativa, UniProt A0ACD5V6K6, DEL109-109/L256M/L359M). The experiment in a line: biochemical. The format is binding. To be noted: read-out: koff (k1). How it is done:
as §1
For example, on rates were measured by, at zero time, adding ˜60 pmoles HPPD to 50 mM BisTrisPropane buffer at pH7.0 and at 25° C. containing 25 mM Na ascorbate, 4 μg/ml bovine catalase (Sigma, St. Louis, Mo.) and an excess (˜300 pmoles) of ^14C inhibitor in a total assay volume of 425 μl and, at various time points (0-180 s), quenching the radiolabel binding reaction by addition and rapid mixing of 100 μl ‘cold’ 1 mM structure A. Protein samples quenched at different times were then exchanged into 50 mM BisTrisPropane buffer at pH 7.0 containing 0.1M KCl by rapid chromatography down a NAP5 G25 Sephadex column (GE Healthcare Ltd, Buckinghamshire UK) and the amount of ^14C bound to protein fractions quantified in Optiphase scintillant using a Tri-Carb 2900TR scintillation counter (Perkin Elmer, Wellesley, Mass.). The data were fit according to the scheme below in order to derive the value of the apparent second order rate constant, k2, governing the association rate of enzyme and radiolabelled inhibitor. […]

In test [1] the test system is G408A mutant of HPPD SEQ ID NO:14. The experiment in a line: time course of inhibition of enzyme activity. The format is biochemical, Avena sativa. Conditions: inhibitor at 0.15 or 0.6 μM.
For test [2], the system named is soybean event 1 (vector 15764) expressing SEQ ID NO:14. The test is described as follows: herbicide spray test on soybean events. Conditions: C 400 g/ha; event 1/SEQ#14; V2 growth stage; 14 DAT; average of n=7. The format is in vivo. The text has this:
(§7) Each data point represents the average damage score from n=7 replicates.
(§8) These events were used to compare the performance of five 17147 events. Four of these, SF, S8, S7 and S3 had not been preselected for tolerance level (other than to confirm resistance, non-chimerical nature and the presence of the gene) while the remaining event, T0, had been preselected as the most resistant out of five 17147 events in a preliminary field test.
(§9) Plants were in 4×4×4 inch plastic pots and grown under a 15/9 hour light regime (daylight supplemented by artificial light in greenhouses) at a minimum night-time temperature of 18° C. and maximum daytime temperature of 27° C. Soil was regular VBRC mix (1:1 mixture of Vero field soil and Fafard Mix II) where Vero field soil is 98% sand and 2% clay. […] Spray volume was 150 L/ha and the damage scores reflect assessments at 14 DAT.

The subject of test [3] is soybean event 2 (vector 15764) expressing SEQ ID NO:14. The test is described as follows: herbicide spray test on soybean events. In kind it is in vivo. To be noted: C 400 g/ha; event 2/SEQ#14; V2 growth stage; 14 DAT; average of n=7.
From the text: as §7, §8, §9

Test [4] relates to soybean event S3 (vector 17147) expressing SEQ ID NO:24. The experiment in a line: herbicide spray test on soybean events. The format is in vivo. Conditions: C 400 g/ha; event S3/SEQ#24; V2 growth stage; 14 DAT; average of n=7.
From the text: as §7, §8, §9

In test [5] the test system is soybean event S7 (vector 17147) expressing SEQ ID NO:24. The test is described as follows: herbicide spray test on soybean events. The format is in vivo. To be noted: C 400 g/ha; event S7/SEQ#24; V2 growth stage; 14 DAT; average of n=7.
From the text: as §7, §8, §9

For test [6], the system named is soybean event S8 (vector 17147) expressing SEQ ID NO:24. The test is described as follows: herbicide spray test on soybean events. The format is in vivo. Conditions: C 400 g/ha; event S8/SEQ#24; V2 growth stage; 14 DAT; average of n=7.
From the text: as §7, §8, §9

Test [7] deals with soybean event SF (vector 17147) expressing SEQ ID NO:24. The experiment in a line: herbicide spray test on soybean events. Conditions: C 400 g/ha; event SF/SEQ#24; V2 growth stage; 14 DAT; average of n=7. In kind it is in vivo.
From the text: as §7, §8, §9

Test [8] has as its system soybean event T0 (vector 17147) expressing SEQ ID NO:24. The test is described as follows: herbicide spray test on soybean events. In kind it is in vivo. Conditions: C 400 g/ha; event T0/SEQ#24; V2 growth stage; 14 DAT; average of n=7.
From the text: as §7, §8, §9

A further test relates to Jack w/t. The test is described as follows: herbicide spray test on soybean. The format is in vivo. To be noted: C 400 g/ha, V2 growth stage, 14 DAT, average of n=7. How it is done:
as §7, §9

One may read the Kd as the constant that tells how readily two partners part at equilibrium. The koff is the first-order rate constant of dissociation. Broadly, the kon is the rate constant with which the complex forms.

Chain of HPPD SEQ ID NO:15 (A0ACD5V6K6 entry or part of it DEL109-109/Q298A): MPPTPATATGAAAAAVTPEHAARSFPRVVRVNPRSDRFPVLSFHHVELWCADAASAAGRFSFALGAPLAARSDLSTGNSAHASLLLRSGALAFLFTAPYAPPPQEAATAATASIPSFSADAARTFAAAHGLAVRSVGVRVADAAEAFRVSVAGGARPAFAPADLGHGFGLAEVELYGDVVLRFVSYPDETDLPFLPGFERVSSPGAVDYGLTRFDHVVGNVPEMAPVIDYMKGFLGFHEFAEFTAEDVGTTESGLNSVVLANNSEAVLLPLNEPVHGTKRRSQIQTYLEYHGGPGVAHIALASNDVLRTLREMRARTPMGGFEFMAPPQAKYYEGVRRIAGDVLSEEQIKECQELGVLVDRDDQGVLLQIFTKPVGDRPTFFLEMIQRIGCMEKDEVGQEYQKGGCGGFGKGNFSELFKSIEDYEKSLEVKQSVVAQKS
Chain of HPPD SEQ ID NO:19 (A0ACD5V6K6 entry or part of it DEL109-109/I285A): as the sequence (A0ACD5V6K6 entry or part of it DEL109-109/Q298A) above, with I284A, A297Q counted along it
Chain of HPPD SEQ ID NO:26 (A0ACD5V6K6 entry or part of it DEL109-109/L256M/L359M): as the sequence (A0ACD5V6K6 entry or part of it DEL109-109/Q298A) above, with L255M, A297Q, L358M counted along it

On to `COCCOCc1nc(C(F)(F)F)ccc1C(=O)C1C(=O)C2CCC(C2)C1=O` (stereo not shown) [Structure C], for which the values for the equilibrium dissociation constant (Kd) on HPPD SEQ ID NO:15 and at HPPD SEQ ID NO:19 were 17.7 nM and 8.9 nM, respectively. For the same compound, the dissociation rate constant (koff) on HPPD SEQ ID NO:15 (read-out: koff (k1)) was 0.000113 s⁻¹; on HPPD SEQ ID NO:19 (read-out: koff (k1)), 6.6e-05 s⁻¹; at HPPD SEQ ID NO:26 it was 9e-05 s⁻¹. The kon at HPPD SEQ ID NO:15 (read-out: kon (k2)) and at HPPD SEQ ID NO:19 (read-out: kon (k2)) was 7500 M⁻¹ s⁻¹ each time. The “extent of inhibition compared with the control enzyme” value in test [1] was “to a lesser extent”. Besides, the “% dam.” value in test [2] is on record as 42.1%; in test [3], 52.9%; in test [4] it was 62.1%; in [5] it was 45%; in [6], 68.6%; in [7], 98.6%. In addition, the figures for the “% dam.” value (in [8]; in the test on Jack w/t) were 45% and 82.1%, respectively.
